Measurements from US20060257935A1, “Hematopoietic factor production promoter” (Ajinomoto Co., Inc., priority 2005, published 2006).

Legend:
[1] = Blood arginine concentration after oral administration to rats; type: in vivo, rat; settings: oral single-dose administration of arginine at 1.2 g/kg
[2] = system: porcine primary hepatocyte; settings: added to medium for porcine primary hepatocyte culture at a high concentration; cited from earlier work
[3] = system: activin (rat Inhibin betaA); test: Activin mRNA quantification by quantitative PCR in bone marrow cells isolated from renal failure rat; type: cell-based; settings: 2 hours after addition of arginine, 400 μM or 600 μM vs 100 μM
From the text: (§1) A renal failure rat (a rat from which ⅚ of kidney was removed) was produced as follows. A male Wistar rat at 8 weeks of age (Charles River Japan, Inc.) was subjected to the total extirpation of the right kidney and the ⅔ extirpation of the renal cortex of the left kidney under anesthesia with Nembutal and was sutured. After the surgery, the rat was housed under normal housing condition (CRF-1 diet, Charles River Japan, Inc.). Six weeks after the surgery the renal failure rat was killed by diethyl ether, then both femurs were excised and bone marrow cells were isolated. The isolated bone marrow cells were suspended in an IMDM medium with blood amino acid concentration containing 10% FCS. […]
(§2) The quantification of mRNA of each of the hematopoietic factors was determined by the quantitative PCR method mentioned below. Based on the sequences of activin (rat Inhibin betaA), SCF and IGF-1 registered in NCBI (GenBank accession Nos. M37482, NM021843, and NM178886, respectively in the order), oligonucleotide primers to be used for the quantitative PCR method were synthesized. […]
(§3) The quantitative PCR method was in accordance with the method described in SYBRGreen PCR kit (TOYOBO., Ltd.). […] After the quantitative PCR, the presence or absence and size of an amplified product were confirmed by agarose gel electrophoresis. […]

[4] = system: SCF; test: SCF mRNA quantification by quantitative PCR in bone marrow cells isolated from renal failure rat; type: cell-based; settings: 2 hours after addition of arginine, 400 μM or 600 μM vs 100 μM
From the text: as §1, §2, §3

[5] = system: IGF-1; test: IGF-1 mRNA quantification by quantitative PCR in bone marrow cells isolated from renal failure rat; type: cell-based; settings: 2 hours after addition of arginine, 400 μM or 600 μM vs 100 μM
From the text: as §1, §2, §3

[6] = system: normal rats; settings: repeated administration; cited from earlier work
[7] = system: patients with renal anemia; settings: cited from earlier work
[8] = system: mouse bone marrow cells (CFU-E); test: In vitro mouse CFU-E colony assay (methylcellulose semi-solid medium); type: cell-based
Procedure: An in vitro mouse CFU-E colony assay was conducted in accordance with the following method. After a female BDF-1 mouse at 10 weeks of age (Charles River Japan, Inc.) was killed by the cervical dislocation method, bone marrow cells were isolated from the femur and suspended in an IMDM medium (Invitrogen) containing 10% FCS (JRH Bioscience Inc). The bone marrow cells were centrifuged at 1500 rpm for 10 minutes at 4° C. and the precipitated bone marrow cells were resuspended in an amino acid-free IMDM medium and the number of cells was measured. […] At 28 hours after the culture was carried out under the condition of 37° C. and 5% CO2, the number of CFU-E colonies was measured using an inverted microscope. […] The data is expressed as a mean value±SEM. […]

[9] = system: MC3T3-E1 cells; settings: cited from earlier work

With `N=C(N)NCCC[C@H](N)C(=O)O` [arginine] as the molecule, how does the blood arginine concentration [1] read?
Its blood arginine concentration is “about 600 μM”.

And the “gene expression of IGF-1” value [2]?
Its value is “increases”.

What about the “production of activin (relative mRNA level per total RNA)” value [3] of the same molecule?
The value was “promotes the production”.

What about the “production of SCF (relative mRNA level per total RNA)” value [4] of the same molecule?
The value was “promotes the production”.

What about the “production of IGF-1 (relative mRNA level per total RNA)” value [5] of the same molecule?
Its value is “promotes the production”.

And the “amount of hemoglobin and red blood cells” value [6]?
The value was “increased”.

What about the “condition of anemia (number of red blood cells)” value [7] of the same molecule?
The value was “improved”.

And the “number of CFU-E colonies” value ([8]; 600 μM arginine added to isolated mouse bone marrow cells, compared with 170 μM)?
Its value is “significantly increases”.

And the “gene expression of IGF-1” value ([9]; MC3T3-E1 cells, arginine added at a higher concentration)?
Its value is “increases”.

And the “secretion amount of IGF-1” value ([9]; MC3T3-E1 osteoblast-like cell line)?
Its value is “increases”.

Which “gene expression of IGF-1” value [2] does the source give for `O=C(O)[C@@H]1CCCN1` [proline] here?
The value was “increases”.

Which “gene expression of IGF-1” value [2] does the source give for `C[C@@H](O)[C@H](N)C(=O)O` [threonine] here?
Its value is “increases”.

For `N[C@@H](Cc1c[nH]c2ccccc12)C(=O)O` [triptophan], which “gene expression of IGF-1” value [2] is on record?
The value was “increases”.

B1: follistatin: follistatin (FSN, anti-activin, R&D Co.), inhibitor for activin (protein, UniProt P19883 30-344, looked up)
Follistatin: GNCWLRQAKNGRCQVLYKTELSKEECCSTGRLSTSWTEEDVNDNTLFKWMIFNGGAPNCIPCKETCENVDCGPGKKCRMNKKNKPRCVCAPDCSNITWKGPVCGLDGKTYRNECALLKARCKEQPELEVQYQGRCKKTCRDVFCPGSSTCVVDQTNNAYCVTCNRICPEPASSEQYLCGNDGVTYSSACHLRKATCLLGRSIGLAYEGKCIKAKSCEDIQCTGGKKCLWDFKVGRGRCSLCDELCPDSKSDEPVCASDNATYASECAMKEAACSSGVLLEVKHSGSCNSISEDTEEEEEDEDQDYSFPISSILEW
With B1 as the molecule, how does the “inhibition of CFU-E-colony stimulating activity of arginine” value ([8]; follistatin 100 ng/ml, 600 μM arginine, 28 hours culture) read?
Its value is “inhibited”.
